The source of these data is patent publication US10851092B2, “Pyridine compound” (Daiichi Sankyo Company, Limited, priority 2016, dated 2020).

Data set [1] relates to thyroid gland cancer cell line TT having RET activating mutation (C634W). Kind of data set: Cell growth inhibitory activity, thyroid gland cancer cell line TT. The class given is cell-based. The note with it: Homo sapiens, 216 h; TT cells, 9 days, CellTiter-Glo. How it is done: The cell growth inhibitory activity of the test compound on the thyroid gland cancer cell line TT having RET activating mutation (C634W) (Biochemical and Biophysical Research Communications. 1995 Feb. 27 (207), 1022-1028) was measured.
TT cells were seeded on a 96-well plate at a cell density of 5,000 cells per well, and were then cultured at 37° C. in the presence of 5% CO2 overnight in an F-12K nutrient mixture medium containing 10% FBS. Thereafter, the compound was diluted, and then added to the 96-well plate. As a negative control, dimethyl sulfoxide (hereinafter referred to as DMSO) was added. The obtained mixture was cultured at 37° C. in the presence of 5% CO2 for 9 days, and thereafter, a cell count measuring reagent CellTiter-Glo® Luminescent Cell Viability Assay was added to the culture, followed by stirring the mixture. Thereafter, using a luminescence measurement device Envision (Perkin Elmer), the luminescence intensity was measured. The measurement value of a well to which only the medium had been added was define as a survival rate of 0%, and the measurement value of a well to which DMSO had been added was defined as a survival rate of 100%. The survival rate of the TT cells in the presence of each concentration of the test compound was calculated.
On the technique in general: Cellular ATP, detected with luciferase, serves as a proxy for viable cell number.

The subject of data set [2] is non-small cell lung cancer cell line LC-2/ad having a CCDC6-RET fusion gene. The experiment in a line: Cell growth inhibitory activity, non-small cell lung cancer cell line LC-2/ad. Type of data set: cell-based. The note with it: Homo sapiens, 216 h; LC-2/ad cells, 9 days, CellTiter-Glo. The procedure:
The cell growth inhibitory activity of the test compound on the non-small cell lung cancer cell line LC-2/ad having a CCDC6-RET fusion gene (RIKEN, J Thorac Oncol. 2012 December, 7(12), 1872-6) was measured.
LC-2/ad cells were seeded on a 96-well plate at a cell density of 5,000 cells per well, and then cultured at 37° C. in the presence of 5% CO2 overnight in a medium prepared by mixing RPMI-1640 containing 15% FBS and 25 mM HEPES with Ham's F12 Mixture at a mixing ratio of 1:1. Thereafter, the test compound was diluted, and then added to the 96-well plate. As a negative control, dimethyl sulfoxide (hereinafter referred to as DMSO) was added. The obtained mixture was cultured at 37° C. in the presence of 5% CO2 for 9 days, and thereafter, a cell count measuring reagent CellTiter-Glo® Luminescent Cell Viability Assay (Promega, # G7571) was added to the culture, followed by stirring the mixture. Thereafter, using a luminescence measurement device Envision, the luminescence intensity was measured. The measurement value of a well to which only the medium had been added was define as a survival rate of 0%, and the measurement value of a well to which DMSO had been added was defined as a survival rate of 100%. The survival rate of the LC-2/ad cells in the presence of each concentration of the test compound was calculated.

Data set [3] deals with RET recombinant protein (RET-wild type) (Homo sapiens (Human), UniProt P07949). Kind of data set: Evaluation of RET kinase inhibiting activity (cell-free system), mobility shift assay. The class given is biochemical. The procedure: (§1) 19 uL of the RET kinase solution was added to each of lines A to P of a 384-well plate, and thereafter, the test compound at each concentration was added to lines C to N, and further, 1 uL of dimethyl sulfoxide (hereinafter referred to as DMSO) was added to each of lines A, B, O and P. Thereafter, the obtained mixtures were each preincubated at room temperature for 20 minutes. Furthermore, a substrate solution A containing ATP (final concentration: 1 mM) and a substrate solution B containing no ATP, both in addition to a reaction buffer and FL-Peptide 22 (PerkinElmer, #760366, final concentration: 1.5 uM) were produced. The substrate solution A was added in an amount of 5 uL to lines B to 0, whereas the substrate solution B was added in an amount of 5 uL to lines A and P. The obtained mixtures were each incubated at 28° C. for 45 minutes. A reaction termination solution (100 mM HEPES (pH 7.4), 0.015% Briji-35, 40 mM EDTA, and 0.1% Coating Reagent 3) was added in an amount of 40 ul to the reaction mixture, so as to terminate the reaction.
RET recombinant protein (RET-wild type), sequence (P07949 29-1114): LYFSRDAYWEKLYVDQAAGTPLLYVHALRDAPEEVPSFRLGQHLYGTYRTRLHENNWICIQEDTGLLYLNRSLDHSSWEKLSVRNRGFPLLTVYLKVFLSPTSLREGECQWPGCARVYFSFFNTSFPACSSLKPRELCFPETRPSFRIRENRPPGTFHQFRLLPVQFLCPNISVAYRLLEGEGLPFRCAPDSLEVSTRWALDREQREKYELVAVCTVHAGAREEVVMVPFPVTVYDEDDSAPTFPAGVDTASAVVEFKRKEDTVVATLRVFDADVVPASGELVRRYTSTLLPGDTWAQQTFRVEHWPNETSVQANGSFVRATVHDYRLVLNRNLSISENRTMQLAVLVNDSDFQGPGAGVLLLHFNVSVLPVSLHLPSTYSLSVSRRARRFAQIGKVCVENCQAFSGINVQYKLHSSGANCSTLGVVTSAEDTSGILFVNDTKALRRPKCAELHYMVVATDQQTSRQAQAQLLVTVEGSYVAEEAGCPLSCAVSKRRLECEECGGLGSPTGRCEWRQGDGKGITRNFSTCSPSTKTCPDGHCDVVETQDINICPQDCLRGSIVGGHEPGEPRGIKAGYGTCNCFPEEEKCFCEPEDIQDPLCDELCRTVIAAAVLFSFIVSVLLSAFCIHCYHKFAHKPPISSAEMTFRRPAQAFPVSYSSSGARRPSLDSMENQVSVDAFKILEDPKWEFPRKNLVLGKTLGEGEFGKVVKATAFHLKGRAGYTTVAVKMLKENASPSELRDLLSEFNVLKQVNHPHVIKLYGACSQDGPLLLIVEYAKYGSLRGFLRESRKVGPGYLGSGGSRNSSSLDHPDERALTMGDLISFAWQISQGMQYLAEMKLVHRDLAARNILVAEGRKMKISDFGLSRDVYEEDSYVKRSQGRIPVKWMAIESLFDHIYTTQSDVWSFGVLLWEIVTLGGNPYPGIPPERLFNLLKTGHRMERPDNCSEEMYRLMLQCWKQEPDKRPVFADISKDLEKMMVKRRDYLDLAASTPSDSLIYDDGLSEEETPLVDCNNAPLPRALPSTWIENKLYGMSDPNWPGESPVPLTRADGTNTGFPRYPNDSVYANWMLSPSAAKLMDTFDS
(§2) Using EZ Reader II (Perkin Elmer), a substrate peptide was separated from a phosphorylated peptide in the reaction solution, and the product ratio (P/(P+S)) calculated from the peak (S) of the substrate peptide and the peak (P) of the phosphorylated peptide was used for evaluation. The inhibition of the test compound having each concentration was obtained by the following formula (automatically calculated using the software of EZ Reader II System). Inhibition (%)=100×(1−Ci/Co) (a) Ci: Conversion rate of a reaction of a test compound with substrate solution A−conversion rate of a reaction of DMSO with substrate solution B Co: Conversion rate of a reaction of DMSO with substrate solution A−conversion rate of a reaction of DMSO with substrate solution B
(§3) Based on the inhibition rates of the test compound at 12 different concentrations according to the formula (a), a 4-parameter logistic regression curve was drawn. At this time, the 4-parameter logistic regression equation is expressed as follows. Inhibition (%)=Bottom+(Top−Bottom)/(1+(X/IC50)^^slope) (b) Top: Upward asymptote Slope: Slope parameter IC50: Value X of (Top+Bottom)/2 Bottom: Downward asymptote X: Concentration of test compound
(§4) First, any given initial values are inputted into Top, Slope, IC50, Bottom (Top=100, Slope=−1, IC50=approx. IC50, and Bottom=0), so that a regression curve was drawn. Subsequently, a least-squares method was executed to the sum of squares of a difference between the measured value and the estimated value obtained from formula (b) to calculate the coefficient of the 4-parameter logistic regression equation, so as to calculate IC50.

In data set [4] the target is RET-Gatekeeper mutation (V804L) recombinant protein (Homo sapiens (Human), UniProt P07949, V804L). Kind of data set: Evaluation of RET kinase inhibiting activity (cell-free system), gatekeeper mutant. The class given is biochemical. The settings on record: non-cell system; read-out: Biochemical assay (non-cell system) IC50 (nM) RET-V804L. How it is done: as §1, §2, §3, §4
RET-Gatekeeper mutation (V804L) recombinant protein, sequence (P07949 29-1114 V804L): as the sequence (P07949 29-1114) above, with V776L counted along it

For data set [5], the system named is phosphorylated RET in Ba/F3-RET-V804M tumors. Kind of data set: One shot PKPD analysis, Ba/F3-RET-V804M tumors. The class given is in vivo, mice.
For a further data set, the target named is KDR kinase (Homo sapiens (Human), UniProt P35968). The experiment in a line: Evaluation of KDR kinase inhibiting activity (cell system), HUVEC, AlphaLISA. The class given is cell-based. The procedure: HUVEC cells were seeded on a plate at a cell density of 1500 cells per well, and then cultured overnight. The test compound (10 uM, 2.5 uM, 625 nM, 156 nM, […], 10 nM, 2.5 nM, or 0.6 nM) was added to each well, followed by culturing the obtained mixture for 2 hours. Thereafter, VEGF165 (Peprotech, #100-20) was added to the culture at a final concentration of 50 ng/ml, and the obtained mixture was then reacted at 37° C. for 5 minutes. Thereafter, the resulting cells were lysed with 50 ul of Lysis buffer included in AlphaLISA SureFire Ultra (Perkin Elmer, # ALSU-PVGFR-A500), and Acceptor beads and Donor beads were then added to 10 ul of the cell lysate according to the instruction manual included with the aforementioned kit. The mixture thus obtained was reacted at room temperature overnight, and thereafter, a KDR kinase inhibiting activity rate was measured using Envision (Perkin Elmer).
KDR kinase, sequence (P35968 20-1356): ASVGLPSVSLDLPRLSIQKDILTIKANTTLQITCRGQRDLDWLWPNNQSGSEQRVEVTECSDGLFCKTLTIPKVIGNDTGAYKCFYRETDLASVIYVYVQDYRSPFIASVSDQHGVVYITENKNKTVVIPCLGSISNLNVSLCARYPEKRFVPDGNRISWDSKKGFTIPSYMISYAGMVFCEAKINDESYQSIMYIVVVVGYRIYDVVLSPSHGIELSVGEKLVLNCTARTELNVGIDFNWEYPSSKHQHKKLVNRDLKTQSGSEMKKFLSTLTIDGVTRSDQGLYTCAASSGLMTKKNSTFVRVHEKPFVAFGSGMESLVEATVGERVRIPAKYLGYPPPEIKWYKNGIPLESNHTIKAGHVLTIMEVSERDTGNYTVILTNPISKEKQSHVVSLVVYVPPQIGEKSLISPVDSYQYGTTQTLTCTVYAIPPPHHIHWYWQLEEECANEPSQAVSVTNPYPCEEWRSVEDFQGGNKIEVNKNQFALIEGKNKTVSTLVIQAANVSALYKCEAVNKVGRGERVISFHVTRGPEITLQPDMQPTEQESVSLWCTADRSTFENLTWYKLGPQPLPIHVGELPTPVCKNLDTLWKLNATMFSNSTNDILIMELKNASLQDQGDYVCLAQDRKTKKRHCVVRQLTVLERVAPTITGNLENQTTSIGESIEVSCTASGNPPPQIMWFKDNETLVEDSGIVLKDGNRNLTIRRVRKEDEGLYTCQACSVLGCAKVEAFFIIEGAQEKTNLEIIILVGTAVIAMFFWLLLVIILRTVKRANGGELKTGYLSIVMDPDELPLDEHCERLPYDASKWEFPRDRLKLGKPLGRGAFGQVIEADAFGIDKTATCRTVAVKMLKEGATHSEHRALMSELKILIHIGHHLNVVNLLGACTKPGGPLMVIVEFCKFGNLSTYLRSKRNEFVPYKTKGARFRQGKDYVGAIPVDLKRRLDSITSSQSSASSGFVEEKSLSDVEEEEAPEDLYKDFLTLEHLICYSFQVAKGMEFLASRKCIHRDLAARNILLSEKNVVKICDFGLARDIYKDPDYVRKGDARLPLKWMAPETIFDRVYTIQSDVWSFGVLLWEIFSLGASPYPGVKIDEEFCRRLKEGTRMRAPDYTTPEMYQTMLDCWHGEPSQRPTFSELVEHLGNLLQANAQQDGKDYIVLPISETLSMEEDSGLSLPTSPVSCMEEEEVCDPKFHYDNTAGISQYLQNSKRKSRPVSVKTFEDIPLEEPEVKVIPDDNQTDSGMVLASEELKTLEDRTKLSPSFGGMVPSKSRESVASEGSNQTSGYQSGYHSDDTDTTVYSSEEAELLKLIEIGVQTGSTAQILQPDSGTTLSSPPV
The value for a well to which only the Lysis buffer had been added was subtracted as a background from all of the values. Thereafter, the value for a well to which […] had been added and the test compound had not been added was defined as a KDR kinase activity of 100%, and the obtained value was corrected.
For orientation: Bead proximity is the source of the signal in Alpha formats.

The target of another data set is RET-wild type (Homo sapiens (Human), UniProt P07949). Kind of data set: Evaluation of RET kinase inhibiting activity (cell system), Ba/F3 cells overexpressing Myc tagged RET. Type of data set: cell-based. The settings on record: Form: Free, read-out: IC50 (nM) RET. The procedure:
Thereafter, 1 mL of Cell Lysis Buffer (Cell signaling technology, #9803), a single tablet of Phosphatase inhibitor (Roche, #04906837001), and a single tablet of Protease inhibitor (Roche, #0469312400) were added to 9 mL of MilliQ, and 20 ul of the obtained mixture was then added to each well. The mixture thus obtained was placed on ice for 20 minutes, so that the cells were lysed. A 5-ul aliquot was taken from the cell lysate, and thereafter, 64 nl of Myc antibody (Cell signaling technology, #3946) and Streptavidin Donor beads in an equal amount of 102 nl of P-Tyr-100 Acceptor beads included in the Alpha Screen Phosphotyrosine (P-Tyr-100) assay kit (Perkin Elmer, #6760620C) were added to the aliquot in accordance with the instruction manual included with the aforementioned assay kit. The obtained mixture was reacted at room temperature overnight, and a RET kinase inhibiting activity rate was then measured using Envision.

The mark [6] stands for this setting: cell system, comparator compounds, Form: Free, read-out: IC50 (nM) KDR.
Where [7] appears, read: cell system, Form: Mesylate, read-out: IC50 (nM) KDR.

Read-outs that look alike come from different tables or passages of the source.

RET-wild type, sequence (P07949 29-1114): as the sequence (P07949 29-1114) above

On to `CCc1cc2c(cc1N1CCC(N3CCOCC3)CC1)C(C)(C)c1[nH]c3cc(C#N)ccc3c1C2=O` [Alectinib, 9-Ethyl-6,6-dimethyl-8-[4-(morpholin-4-yl)piperidin-1-yl]-11-oxo-6,11-dihydro-5H-benzo[b]carbazole-3-carbonitrile, reference compound], for which the IC50 (as a rule, the concentration at which inhibition is half-maximal) in data set [1] stood at 112 nM; in data set [2] it was 308 nM.
Turning to `COc1cc2ncc(-c3cnc(CC(=O)Nc4cc(C(C)(C)C(F)(F)F)on4)c(F)c3)nc2cc1OC` [Compound 229, reference compound], the “inhibitory effect in vitro” value in data set [3] (in vitro) is “strong inhibitory effect”. The IC50 in data set [3] (non-cell system, read-out: Biochemical assay (non-cell system) IC50 (nM) RET-WT) came to 1.5 nM; in data set [4], 1.7 nM. The “suppression of phosphorylated RET (pRET) in Ba/F3-RET-V804M tumors” value in data set [5] (10 mg/kg oral) is “did not suppress”. Moreover, the exposure in tumors entry in data set [5] (Ba/F3-RET-V804M tumors, 10 mg/kg oral) is reported as “poor exposure in tumors”. The “Relative phosphorylation of RET (%) in Ba/F3-RET-V804M tumors” value in data set [5] (Dose: 10 mg/kg oral, six hours after administration, relative to vehicle) is 98%.
As for `COc1cc2ncc(-c3ccc(CC(=O)Nc4cc(C(C)(C)C(F)(F)F)on4)cc3)nc2cc1OC` [Ex. 8, reference compound], the IC50 worked out at 9 nM at KDR kinase (setting [6]) and 7 nM on RET-wild type (comparator compounds).
On to `COc1cc2cc(-c3ccc(CC(=O)Nc4cc(C(C)(C)C(F)(F)F)on4)cn3)cnc2cc1OC` [Example 1, 2-[6-(6,7-Dimethoxyquinolin-3-yl)pyridin-3-yl]-N-[5-(1,1,1-trifluoro-2-methylpropan-2-yl)-1,2-oxazol-3-yl]acetamide], for which the IC50 on RET-wild type is 18 nM.
Regarding `COc1cc2cc(-c3ccc(CC(=O)Nc4cc(C(C)(C)C(F)(F)F)on4)cn3)cnc2cc1OC` [Example 2, 2-[6-(6,7-Dimethoxyquinolin-3-yl)pyridin-3-yl]-N-[5-(1,1,1-trifluoro-2-methylpropan-2-yl)-1,2-oxazol-3-yl]acetamide Methanesulfonate], at KDR kinase (setting [7]), the IC50 came to 828 nM.
As to `COc1cc2cc(-c3ccc(CC(=O)Nc4cc(C(C)(C)C(F)(F)F)n[nH]4)cn3)cnc2cc1OC` [Example 6, 2-[6-(6,7-Dimethoxyquinolin-3-yl)pyridin-3-yl]-N-[3-(1,1,1-trifluoro-2-methylpropan-2-yl)-1H-pyrazol-5-yl]acetamide Methanesulfonate], the IC50 was 566 nM on KDR kinase (KDR, HUVEC cells, VEGF165 50 ng/ml, compound 2 hours, read-out: IC50) and 566 nM on KDR kinase (setting [7]).
Turning to `COc1cc2cc(-c3ccc(CC(=O)Nc4cc(C(C)(C)C(F)(F)F)no4)cc3)cnc2cc1OC` [Ref Ex. 1, 2-[4-(6,7-Dimethoxyquinolin-3-yl)phenyl]-N-[3-(1,1,1-trifluoro-2-methylpropan-2-yl)-1,2-oxazol-5-yl]-acetamide, reference compound], the IC50 on KDR kinase (cell system, comparator compounds, Form: Mesylate, read-out: IC50 (nM) KDR) was 7 nM; on RET-wild type (comparator compounds) it was 8 nM.
Consider `COc1cc2cc(-c3ccc(CC(=O)Nc4cc(C(C)(C)C(F)(F)F)n[nH]4)cc3)cnc2cc1OC` [Ref Ex. 2, 2-[4-(6,7-Dimethoxyquinolin-3-yl)phenyl]-N-[3-(1,1,1-trifluoro-2-methylpropan-2-yl)-1H-pyrazol-5-yl]-acetamide, reference compound], for which the IC50 on KDR kinase (setting [6]) came to 16 nM; on RET-wild type (comparator compounds), 5 nM.
For `COc1cc2cc(-c3ccc(CC(=O)Nc4cc(C(C)(C)C(F)(F)F)no4)c(F)c3)cnc2cc1OC` [Ref Ex. 3, 2-[4-(6,7-Dimethoxyquinolin-3-yl)-2-fluorophenyl]-N-[3-(1,1,1-trifluoro-2-methylpropan-2-yl)-1,2-oxazol-5-yl]acetamide, reference compound] the same measures were 6 nM and 8 nM.
